{"source": "patent US20250263376A1", "about": "“(E)-N-CINNAMOYLAMINOALKANOLS WITH MELANOGENESIS INHIBITORY ACTIVITY” (Uniwersytet Jagiellonski, priority 2024, published 2025);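 as to Increase in the number of yellow wells compared to the reference level, E. coli WP2: bacteria exposed to compound for 90 min at 37 °C in 24-well plates, then transferred with indicator medium to 384-well plates and incubated 48 h before yellow well counting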;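 as to Increase in the number of yellow wells compared to the reference level, TA1535: bacteria exposed 90 min at 37 °C in exposure medium, then 48 h in indicator medium in 384-well plates, yellow (revertant) wells counted per condition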", "key": {"[1]": {"tested_on": "CHO-K1 cells", "test": "Cytotoxicity (MTT) in CHO-K1 cells before the micronucleus test", "assay_type": "cell-based, Chinese hamster", "conditions": "24 hours", "in_short": "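CHO-K1 cells were grown in F-12K with 10% FBS at 37° C and incubated with compounds for 24 h, as a screen to set safe concentrations for the micronucleus test. Viability was read by MTT against a control given DMSO at the same concentration.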"}, "[2]": {"tested_on": "S. typhimurium TA1537", "test": "Ames microplate test, TA1537", "assay_type": "cell-based, Salmonella typhimurium", "experimental": "Bacteria were grown overnight in growth medium."}, "[3]": {"tested_on": "fibroblasts (BJ)", "test": "Safety, MTT test in fibroblasts", "assay_type": "cell-based", "conditions": "48 hours", "experimental": "(§1) In order to test the safety of the compounds, both normal human cells were used: keratinocytes (HaCaT), fibroblasts (BJ), primary melanocytes that occur in the skin, as well as human cancer cells: the hepatocarcinoma line HepG2 and the neuroblastoma line SH-SY5Y, which are considered a model for the assessment of hepatocytotoxicity and neurocytotoxicity. The concentrations of the tested compounds in the range of […] were used in the studies. The cell lines used in the research were purchased from the American Type Culture Collection (ATCC) and were cultured in media recommended by the manufacturer with the addition of FBS and antibiotics in an incubator ensuring appropriate culture conditions, i.e. humidity, temperature and CO2 concentration. Cells were seeded into multiwell plates and incubated with the test compounds for 48 hours. After this time, MTT and LDH tests were performed to assess cell viability. The MTT test is based on the ability to transform the substrate: [3-(4,5-dimethyl-2-thiazolyl)-2,5-diphenyl-2H-tetrazolium bromide into a colored product only by living cells. The absorbance at 570 nm, which corresponds to the absorption maximum for the product, is directly proportional to cell viability. The LDH test is based on testing the activity of the enzyme lactate dehydrogenase in the culture medium, which is released from cells as a result of damage to the cell membrane, e.g. as a result of cell death. Triton X-100 was used as a positive control in the test. The determination is colorimetric, the substrate is transformed by the released enzyme into a colored product, an increase in absorbance indicates a larger amount of the released enzyme, and thus confirms greater damage to cell membranes. Tables 7 and 8 present the results obtained, which correspond to the viability of cells incubated with the compounds in relation to the viability of cells constituting a control sample, i.e. incubated with the solvent (DMSO) at the same concentration as in the case of the groups tested in the MTT test or in relation to the results obtained for the Triton X-100 positive control in the LDH test. They indicate that the compounds are safe at the concentrations tested."}, "[4]": {"tested_on": "E. coli WP2", "test": "Ames microplate test, E. coli WP2"}, "[5]": {"tested_on": "keratinocytes (HaCaT)", "test": "Safety, LDH test in keratinocytes", "assay_type": "cell-based", "conditions": "48 hours, vs Triton X-100", "experimental": "as §1"}, "[6]": {"tested_on": "S. typhimurium TA100", "test": "Ames microplate test, TA100", "assay_type": "cell-based, Salmonella typhimurium"}, "[7]": {"tested_on": "hepatocarcinoma HepG2", "test": "Safety, MTT test in HepG2", "assay_type": "cell-based", "conditions": "48 hours", "experimental": "as §1"}, "[8]": {"tested_on": "S. typhimurium TA1535", "test": "Ames microplate test, TA1535", "quoted_text": "The study used the Ames microplate test (Ames MPF™ Penta 2 by Xenometrix, Allschwil, Switzerland). Growth medium, exposure medium, indicator medium, positive controls, hepatic microsomal fraction, NADP, glucose-6-phosphate, Salmonella typhimurium and Escherichia coli strains were components of the purchased experimental kit. Bacteria were grown overnight in growth medium. They were then exposed to the test compound at the appropriate concentration in exposure medium without or with the rat microsomal fraction S9 in 24-well plates for 90 min at 37° C. with shaking. Then, indicator medium was added to the wells and pipetted into 384-well plates, which were incubated for 48 hours at 37° C. without shaking. Results were assessed by counting the wells in which the medium turned yellow for each experimental condition."}, "[9]": {"tested_on": "primary melanocytes", "test": "Safety, MTT test in primary melanocytes", "assay_type": "cell-based", "conditions": "48 hours", "experimental": "as §1"}, "[10]": {"tested_on": "keratinocytes (HaCaT)", "test": "Safety, MTT test in keratinocytes", "assay_type": "cell-based", "conditions": "48 hours", "experimental": "as §1"}, "[11]": {"tested_on": "neuroblastoma SH-SY5Y", "test": "Safety, MTT test in SH-SY5Y", "assay_type": "cell-based", "conditions": "48 hours", "experimental": "as §1"}, "[12]": {"tested_on": "neuroblastoma SH-SY5Y", "test": "Safety, LDH test in SH-SY5Y", "assay_type": "cell-based", "conditions": "48 hours, vs Triton X-100", "experimental": "as §1"}}}
{"molecule": "O=C(/C=C/c1ccccc1)NCCCCCO", "note": "[Compound A-133, (2E)-N-(5-hydroxypentyl)-3-phenylprop-2-enamide]", "values": [{"measurement": "% Viability [mean], CHO-K1", "setting": "[1]; 100 μM", "result": 94.6, "unit": "%"}, {"measurement": "% Viability [mean], CHO-K1", "setting": "[1]; 150 μM", "result": 97.2, "unit": "%"}, {"measurement": "% Viability [mean], CHO-K1", "setting": "[1]; 200 μM", "result": 89.1, "unit": "%"}, {"measurement": "Increase in the number of yellow wells compared to the reference level, TA1537", "setting": "[2]; 0.5 mM, + S9", "result": 0.18}, {"measurement": "Increase in the number of yellow wells compared to the reference level, TA1537", "setting": "[2]; 0.5 mM, without S9", "result": 1.07}, {"measurement": "Increase in the number of yellow wells compared to the reference level, TA1537", "setting": "[2]; 1.0 mM, + S9", "result": 0.36}, {"measurement": "Increase in the number of yellow wells compared to the reference level, TA1537", "setting": "[2]; 1.0 mM, without S9", "result": 0.54}, {"measurement": "Increase in the number of yellow wells compared to the reference level, TA1537", "setting": "[2]; 2.0 mM, + S9", "result": 0.27}, {"measurement": "Increase in the number of yellow wells compared to the reference level, TA1537", "setting": "[2]; 2.0 mM, without S9", "result": 0.54}, {"measurement": "MTT, Fibroblasts (BJ)", "setting": "[3]; 100 μM", "result": "99.41 ± 5.96 % of solvent control"}, {"measurement": "MTT, Fibroblasts (BJ)", "setting": "[3]; 150 μM", "result": "91.68 ± 3.64 % of solvent control"}, {"measurement": "MTT, Fibroblasts (BJ)", "setting": "[3]; 200 μM", "result": "87.76 ± 2.71 % of solvent control"}, {"measurement": "MTT, Fibroblasts (BJ)", "setting": "[3]; 250 μM", "result": "82.50 ± 3.99 % of solvent control"}, {"measurement": "Increase in the number of yellow wells compared to the reference level, E. coli WP2", "setting": "[4]; 0.5 mM, + S9", "result": 0.27}, {"measurement": "Increase in the number of yellow wells compared to the reference level, E. coli WP2", "setting": "[4]; 0.5 mM, without S9", "result": 0.73}, {"measurement": "Increase in the number of yellow wells compared to the reference level, E. coli WP2", "setting": "[4]; 1.0 mM, + S9", "result": 0.44}, {"measurement": "Increase in the number of yellow wells compared to the reference level, E. coli WP2", "setting": "[4]; 1.0 mM, without S9", "result": 0.37}, {"measurement": "Increase in the number of yellow wells compared to the reference level, E. coli WP2", "setting": "[4]; 2.0 mM, + S9", "result": 0.53}, {"measurement": "Increase in the number of yellow wells compared to the reference level, E. coli WP2", "setting": "[4]; 2.0 mM, without S9", "result": 1.10}, {"measurement": "LDH, Keratinocytes (HaCaT)", "setting": "[5]; 100 μM", "result": "3.23 percentage of positive control"}, {"measurement": "LDH, Keratinocytes (HaCaT)", "setting": "[5]; 150 μM", "result": "3.08 percentage of positive control"}, {"measurement": "LDH, Keratinocytes (HaCaT)", "setting": "[5]; 200 μM", "result": "6.38 percentage of positive control"}, {"measurement": "LDH, Keratinocytes (HaCaT)", "setting": "[5]; 250 μM", "result": "19.58 percentage of positive control"}, {"measurement": "Increase in the number of yellow wells compared to the reference level, TA100", "setting": "[6]; 0.5 mM, + S9", "result": 0.83}, {"measurement": "Increase in the number of yellow wells compared to the reference level, TA100", "setting": "[6]; 0.5 mM, without S9", "result": 0.60}, {"measurement": "Increase in the number of yellow wells compared to the reference level, TA100", "setting": "[6]; 1.0 mM, + S9", "result": 0.78}, {"measurement": "Increase in the number of yellow wells compared to the reference level, TA100", "setting": "[6]; 1.0 mM, without S9", "result": 1.03}, {"measurement": "Increase in the number of yellow wells compared to the reference level, TA100", "setting": "[6]; 2.0 mM, + S9", "result": 0.61}, {"measurement": "Increase in the number of yellow wells compared to the reference level, TA100", "setting": "[6]; 2.0 mM, without S9", "result": 0.57}, {"measurement": "MTT, Hepatocarcinoma HepG2", "setting": "[7]; 100 μM", "result": "104.96 ± 7.60 % of solvent control"}, {"measurement": "MTT, Hepatocarcinoma HepG2", "setting": "[7]; 150 μM", "result": "100.66 ± 7.39 % of solvent control"}, {"measurement": "MTT, Hepatocarcinoma HepG2", "setting": "[7]; 200 μM", "result": "99.09 ± 1.60 % of solvent control"}, {"measurement": "MTT, Hepatocarcinoma HepG2", "setting": "[7]; 250 μM", "result": "98.92 ± 2.34 % of solvent control"}, {"measurement": "Increase in the number of yellow wells compared to the reference level, TA1535", "setting": "[8]; 0.5 mM, + S9", "result": 0.47}, {"measurement": "Increase in the number of yellow wells compared to the reference level, TA1535", "setting": "[8]; 0.5 mM, without S9", "result": 0.92}, {"measurement": "Increase in the number of yellow wells compared to the reference level, TA1535", "setting": "[8]; 1.0 mM, + S9", "result": 0.23}, {"measurement": "Increase in the number of yellow wells compared to the reference level, TA1535", "setting": "[8]; 1.0 mM, without S9", "result": 0.55}, {"measurement": "Increase in the number of yellow wells compared to the reference level, TA1535", "setting": "[8]; 2.0 mM, + S9", "result": 0.35}, {"measurement": "Increase in the number of yellow wells compared to the reference level, TA1535", "setting": "[8]; 2.0 mM, without S9", "result": 1.10}, {"measurement": "MTT, Primary melanocytes", "setting": "[9]; 100 μM", "result": "103.69 ± 2.57 % of solvent control"}, {"measurement": "MTT, Primary melanocytes", "setting": "[9]; 150 μM", "result": "101.88 ± 2.47 % of solvent control"}, {"measurement": "MTT, Primary melanocytes", "setting": "[9]; 200 μM", "result": "97.05 ± 2.96 % of solvent control"}, {"measurement": "MTT, Primary melanocytes", "setting": "[9]; 250 μM", "result": "88.88 ± 2.26 % of solvent control"}, {"measurement": "MTT, Keratinocytes (HaCaT)", "setting": "[10]; 100 μM", "result": "101.35 ± 2.17 % of solvent control"}, {"measurement": "MTT, Keratinocytes (HaCaT)", "setting": "[10]; 150 μM", "result": "101.40 ± 2.08 % of solvent control"}, {"measurement": "MTT, Keratinocytes (HaCaT)", "setting": "[10]; 200 μM", "result": "101.51 ± 2.49 % of solvent control"}, {"measurement": "MTT, Keratinocytes (HaCaT)", "setting": "[10]; 250 μM", "result": "95.53 ± 2.80 % of solvent control"}, {"measurement": "MTT, Neuroblastoma SH-SY5Y", "setting": "[11]; 100 μM", "result": "101.50 ± 3.33 % of solvent control"}, {"measurement": "MTT, Neuroblastoma SH-SY5Y", "setting": "[11]; 150 μM", "result": "100.75 ± 3.01 % of solvent control"}, {"measurement": "MTT, Neuroblastoma SH-SY5Y", "setting": "[11]; 200 μM", "result": "100.62 ± 5.99 % of solvent control"}, {"measurement": "MTT, Neuroblastoma SH-SY5Y", "setting": "[11]; 250 μM", "result": "100.41 ± 1.87 % of solvent control"}, {"measurement": "LDH, Neuroblastoma SH-SY5Y", "setting": "[12]; 100 μM", "result": "5.33 percentage of positive control"}, {"measurement": "LDH, Neuroblastoma SH-SY5Y", "setting": "[12]; 150 μM", "result": "6.93 percentage of positive control"}, {"measurement": "LDH, Neuroblastoma SH-SY5Y", "setting": "[12]; 200 μM", "result": "8.49 percentage of positive control"}, {"measurement": "LDH, Neuroblastoma SH-SY5Y", "setting": "[12]; 250 μM", "result": "13.32 percentage of positive control"}]}
